Measured values as given in patent publication US20140163083A1, “NOVEL CRYSTALLINE SALTS OF ASENAPINE” (SANDOZ AG, priority 2011, published 2014).
Structures can show the parent of a compound that is named as a salt.

Tests used:
[1] = 23° C., pH=4.4; cited from earlier work
[2] = Saturated solution of the maleate salt (Funke et al., literature); type: physicochemical; settings: water, thermodynamic from solid; translated from saturated solution of the maleate at 23° C., pH=4.4; read-out: free base solubility
[3] = Hygroscopic nature by dynamic vapor sorption; type: physicochemical; settings: relative humidities greater than about 20%
Text: The hygroscopic nature of the succinate salt hemihydrate was investigated by dynamic vapor sorption.

solubility [2]	water content by dynamic vapor sorption [3]	Molecule	concentration of saturated solution [1]
~4100 µg/mL		CN1C[C@@H]2c3ccccc3Oc3ccc(Cl)cc3[C@H]2C1 (relative stereo) [maleate salt of Asenapine, trans-5-chloro-2-methyl-2,3,3a,12b-tetrahydro-1H-dibenz[2,3:6,7]oxepino[4,5-c]pyrrole]	5800 µg/mL
	2 to 2.5%	Asenapine succinate form I [succinate salt hemihydrate]	
